Tests used:
Format in all cases: physicochemical
TG-FTIR = assay: TG-FTIR
Description: TG-FTIR experiments were conducted with a Thermo-Microbalance TG-209 (Netzsch) equipped with a FT-IR Spectrometer Vector 22 (Bruker) using Al crucible (open or with microhole) under N2 atmosphere with a heating range between 25 and 250° C. and a heating rate of 10° C./min.

DSC = assay: DSC
Description: DSC experiments were carried out with a Perkin Elmer DSC 7 using closed Au crucibles with a heating range between −50 to 250° C. and a heating rate of 10 or 20° C./min.

[1] = DVS (dynamic vapor sorption)
Description: DVS experiments were carried out with a Projekt Messtechnik SPS 11-100n multi-sample water vapor sorption analyzer. The sample was allowed to equilibrate at 50% r.h. before starting a pre-defined humidity program. The program was: • 2 h at 50% r.h. • 50 to 0% r.h. (5%/h) • 5 h at 0% r.h. • 0 to 95% r.h (5%/h) • 5 h at 95% r.h. • 95 to 50% (5%/h) • 2 h at 50% r.h.

[2] = Direct dissolution of lurbinectedin at 0.5 mg/mL in 0.03 M sodium lactate buffer pH 4; conditions: 0.5 mg/mL in 0.03 M sodium lactate buffer pH 4, in 2 hours
Excerpt: In embodiments, the lurbinectedin to be dissolved is at least partially crystalline. The lurbinectedin to be dissolved may be in the solid state form(s) described herein.

For `COc1ccc2[nH]c3c(c2c1)CCN[C@]31CS[C@@H]2c3c(OC(C)=O)c(C)c4c(c3[C@H](COC1=O)N1[C@@H]2[C@H]2c3c(cc(C)c(OC)c3O)C[C@@H]([C@@H]1O)N2C)OCO4` [Form B of lurbinectedin], the “Degradation temperature by TG-FTIR” value (TG-FTIR) was “above 150 °C”, the “Release of water by TG-FTIR” value (TG-FTIR) was 2.6% and the “Temperature at which degradation begins by DSC” value (DSC) was “above 130 °C”. The “Deliquescence by DVS” value [1] was “not deliquescent”, the “Hygroscopicity by DVS” value [1] was “hygroscopic” and the “DVS mass change Δm” value ([1]; 50 to 96% r.h.) was 4%. For the same compound, the “Fraction of the target concentration reached” value [2] was 60-70%.

From patent US12714706B2, “Methods of treating small cell lung cancer with lurbinectedin formulations” (PHARMA MAR, S.A., priority 2019, dated 2026)
